From US20130109682A1, “CYCLIC ETHER COMPOUNDS USEFUL AS KINASE INHIBITORS” (NOVARTIS AG, priority 2010, published 2013)

Columns and labels:
PIM2 = PIM2 (Homo sapiens, UniProt Q9P1W9); test: KinaseGlo Pim2 ATP depletion assay; type: biochemical
Experimental: KinaseGlo Pim2 ATP Depletion Assay
The activity of PIM2 is measured using a luciferase-luciferin based ATP detection reagent to quantify ATP depletion resulting from kinase-catalyzed phosphoryl transfer to a peptide substrate. Compounds to be tested are dissolved in 100% DMSO and directly distributed into white 384-well plates at 0.5 piper well. To start the reaction, 10 μl of 10 nM Pim2 kinase and 20 μM BAD peptide (RSRHSSYPAGT-OH) in assay buffer (50 mM HEPES pH 7.5, 5 mM MgCl2, 1 mM DTT, 0.05% BSA) is added into each well. After 15 minutes, 10 μl of 8 μM ATP in assay buffer is added. Final assay concentrations are 5 nM PIM2, 4 μM ATP, 10 μM BAD peptide and 2.5% DMSO. The reaction is performed until approximately 50% of the ATP is depleted, then stopped with the addition of 20 μl KinaseGlo Plus (Promega Corporation) solution. The stopped reaction is incubated for 10 minutes and the remaining ATP detected via luminescence on the Victor2 (Perkin Elmer).

[1] = tested on: KMS11 (human myeloma cell line); test: Cell proliferation assay (CellTiter-Glo), KMS11; type: cell-based; details: Homo sapiens, KMS-11; KMS11-Luc cells
Experimental: KMS11 (human myeloma cell line), were cultured in IMDM supplemented with 10% FBS, sodium pyruvate and antibiotics. Cells were plated in the same medium at a density of 2000 cells per well into 96 well tissue culture plates, with outside wells vacant, on the day of assay. MMl.s (human myeloma cell line), were cultured in RPMI1640 supplemented with 10% FBS, sodium pyruvate and antibiotics. Cells were plated in the same medium at a density of 5000 cells per well into 96 well tissue culture plates, with outside wells vacant, on the day of assay.
Test compounds supplied in DMSO were diluted into DMSO at 500 times the desired final concentrations before dilution into culture media to 2 times final concentrations. Equal volumes of 2× compounds were added to the cells in 96 well plates and incubated at 37° C. for 3 days.
After 3 days plates were equilibrated to room temperature and equal volume of CellTiter-Glow Reagent (Promega) was added to the culture wells. The plates were agitated briefly and luminescent signal was measured with luminometer.
Using the procedures of Cell Proliferation Assay, the EC50 concentration of indicated compounds of the examples in were determined in KMS11 cells as shown in Table 4.

PIM3 = PIM3 (Homo sapiens, UniProt Q86V86); test: KinaseGlo Pim3 ATP depletion assay; type: biochemical
Experimental: KinaseGlo Pim3 ATP Depletion Assay
The activity of PIM3 is measured using a luciferase-luciferin based ATP detection reagent to quantify ATP depletion resulting from kinase-catalyzed phosphoryl transfer to a peptide substrate. Compounds to be tested are dissolved in 100% DMSO and directly distributed into white 384-well plates at 0.5 μl per well. To start the reaction, 10 μl of 10 nM Pim3 kinase and 200 μM BAD peptide (RSRHSSYPAGT-OH) in assay buffer (50 mM HEPES pH 7.5, 5 mM MgCl2, 1 mM DTT, 0.05% BSA) is added into each well. After 15 minutes, 10 μl of 80 μM ATP in assay buffer is added. Final assay concentrations are 5 nM […], 40 μM ATP, 100 μM BAD peptide and 2.5% DMSO. The reaction is performed until approximately 50% of the ATP is depleted, then stopped by the addition of 20 μl KinaseGlo Plus (Promega Corporation) solution. The stopped reaction is incubated for 10 minutes and the remaining ATP detected via luminescence on the Victor2 (Perkin Elmer).

GSK3β = GSK3β (Homo sapiens, UniProt P49841); test: GSK3β ATP depletion assay; type: biochemical; details: read-out: GSK3b IC50
GSK3β, sequence (P49841 whole entry, species assumed): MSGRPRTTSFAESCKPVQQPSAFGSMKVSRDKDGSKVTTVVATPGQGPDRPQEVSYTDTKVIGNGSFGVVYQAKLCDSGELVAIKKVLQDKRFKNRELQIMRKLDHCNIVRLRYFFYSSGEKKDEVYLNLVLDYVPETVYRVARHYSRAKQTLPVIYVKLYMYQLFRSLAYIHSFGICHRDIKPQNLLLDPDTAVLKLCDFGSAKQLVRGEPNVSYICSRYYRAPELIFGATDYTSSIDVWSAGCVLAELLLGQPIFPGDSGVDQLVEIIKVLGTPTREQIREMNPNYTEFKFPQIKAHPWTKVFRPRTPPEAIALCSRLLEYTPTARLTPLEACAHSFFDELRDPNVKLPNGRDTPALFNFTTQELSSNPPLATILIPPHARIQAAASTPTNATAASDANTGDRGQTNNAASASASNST
Experimental: GSK3β ATP Depletion Assay
The activity of GSK3β is measured using a luciferase-luciferin based ATP detection reagent to quantify ATP depletion resulting from kinase-catalyzed phosphoryl transfer to a peptide substrate. Compounds to be tested are dissolved in 100% DMSO and directly distributed into white 384-well plates at 0.5 μl per well. To start the reaction, 10 μl of 10 nM GSK3B kinase and 20 μM biotinylated CREB peptide ([…](pS)YR-NH2) in assay buffer (50 mM TRIS pH 7.5, 15 mM MgCl2, 1 mM DTT, 0.1% BSA) is added into each well. After 15 minutes, 10 μl of 2 μM ATP in assay buffer is added. Final assay concentrations are 5 nM GSK3B, […], 10 μM b-CREB peptide and 2.5% DMSO. The reaction is performed until approximately 50% of the ATP is depleted, then stopped with the addition of 20 μl KinaseGlo (Promega Corporation) solution. The stopped reaction is incubated for 10 minutes and the remaining ATP is detected via luminescence on the Victor2 (Perkin Elmer).

PIM1 = PIM1 (Homo sapiens, UniProt P11309); test: KinaseGlo Pim1 ATP depletion assay; type: biochemical
PIM1, sequence (P11309 whole entry): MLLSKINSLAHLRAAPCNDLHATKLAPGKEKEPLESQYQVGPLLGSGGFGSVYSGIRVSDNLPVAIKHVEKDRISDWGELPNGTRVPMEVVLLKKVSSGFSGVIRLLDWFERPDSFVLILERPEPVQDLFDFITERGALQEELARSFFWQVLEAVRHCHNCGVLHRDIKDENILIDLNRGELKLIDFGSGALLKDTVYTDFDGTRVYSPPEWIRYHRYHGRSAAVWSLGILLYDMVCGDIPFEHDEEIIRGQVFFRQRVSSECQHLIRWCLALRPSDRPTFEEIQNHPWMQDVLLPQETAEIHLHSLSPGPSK
Experimental: KinaseGlo Pim1 ATP Depletion Assay
The activity of PIM1 is measured using a luciferase-luciferin based ATP detection reagent to quantify ATP depletion resulting from kinase-catalyzed phosphoryl transfer to a peptide substrate. Compounds to be tested are dissolved in 100% DMSO and directly distributed into white 384-well plates at 0.5 μA per well. To start the reaction, 10 μA of 5 nM Pim1 kinase and 80 μM BAD peptide (RSRHSSYPAGT-OH) in assay buffer (50 mM HEPES pH 7.5, 5 mM MgCl2, 1 mM DTT, 0.05% BSA) is added into each well. After 15 minutes, 10 μl of 40 μM ATP in assay buffer is added. Final assay concentrations are 2.5 nM PIM1, 20 μM ATP, 40 μM BAD peptide and 2.5% DMSO. The reaction is performed until approximately 50% of the ATP is depleted, then stopped with the addition of 20 μA KinaseGlo Plus (Promega Corporation) solution. The stopped reaction is incubated for 10 minutes and the remaining ATP detected via luminescence on the Victor2 (Perkin Elmer). […] IC50, the half maximal inhibitory concentration, represents the concentration of a test compound that is required for 50% inhibition of its target in vitro.

PIM2, sequence (Q9P1W9 whole entry): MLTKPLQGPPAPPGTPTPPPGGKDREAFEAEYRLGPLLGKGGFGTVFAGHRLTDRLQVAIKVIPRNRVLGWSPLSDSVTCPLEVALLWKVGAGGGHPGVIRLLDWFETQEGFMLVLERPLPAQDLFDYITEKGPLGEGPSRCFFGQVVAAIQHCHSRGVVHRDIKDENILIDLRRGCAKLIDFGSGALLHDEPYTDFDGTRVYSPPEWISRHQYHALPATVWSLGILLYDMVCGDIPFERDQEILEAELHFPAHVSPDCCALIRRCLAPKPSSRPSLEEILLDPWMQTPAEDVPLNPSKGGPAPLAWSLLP

Row | Structure (SMILES) | IC50 (PIM2) [nM] | EC50 [1] [nM] | IC50 (PIM3) [nM] | IC50 (GSK3β) [nM] | IC50 (PIM1) [nM]
1 | C[C@H]1O[C@@H](c2ccncc2NC(=O)c2csc(-c3c(F)cccc3F)n2)C[C@@H](O)[C@]1(C)O (stereo in doubt) [Example 109, 2-(2,6-difluorophenyl)-N-(4-((2R,4R,5S,6R)-4,5-dihydroxy-5,6-dimethyltetrahydro-2H-pyran-2-yl)pyridin-3-yl)thiazole-4-carboxamide] | 3420 | > 10000 | 88 | 272 | 68
2 | O=C(Nc1cnccc1C1=C[C@@H](O)[C@H](O)[C@@H](CCl)O1)c1ccc(F)c(-c2c(F)cccc2F)n1 [Example 31, N-(4-((2S,3S,4R)-2-(chloromethyl)-3,4-dihydroxy-3,4-dihydro-2H-pyran-6-yl)pyridin-3-yl)-6-(2,6-difluorophenyl)-5-fluoropicolinamide] | 1 | 1900 | 1 | 117 | 1
3 | CC[C@H]1O[C@@H](c2ccncc2NC(=O)c2ccc(F)c(-c3c(F)cccc3F)n2)C[C@@H](O)[C@@H]1O [Example 75, 6-(2,6-difluorophenyl)-N-(4-((2R,4R,5S,6R)-6-ethyl-4,5-dihydroxytetrahydro-2H-pyran-2-yl)pyridin-3-yl)-5-fluoropicolinamide] | 4 | 2200 | 2 | 228 | 1
4 | O=C(Nc1cnccc1[C@@H]1C[C@H](O)CC2(CC2)O1)c1csc(-c2c(F)cccc2F)n1 [Example 62, 2-(2,6-difluorophenyl)-N-(4-((5S,7S)-7-hydroxy-4-oxaspiro[2.5]octan-5-yl)pyridin-3-yl)thiazole-4-carboxamide] | 321 | > 10000 | 15 | 27 | 2
5 | CC[C@]1(O)[C@H](O)C[C@H](c2ccncc2NC(=O)c2ncccc2N)O[C@@H]1C [Example 158, 3-amino-N-(4-((2R,4R,5S,6R)-5-ethyl-4,5-dihydroxy-6-methyltetrahydro-2H-pyran-2-yl)pyridin-3-yl)picolinamide] | 68.1 | > 10000 | 6.9 | 23.1 | 8.8
6 | N#C[C@H]1O[C@@H](c2ccncc2NC(=O)c2nc(-c3c(F)cccc3F)c(F)cc2N)C[C@@H](O)[C@@H]1O [Example 12, 3-amino-N-(4-((2R,4R,5S,6R)-6-cyano-4,5-dihydroxytetrahydro-2H-pyran-2-yl)pyridin-3-yl)-6-(2,6-difluorophenyl)-5-fluoropicolinamide] | 5 | 7650 | 3 | 220 | 1
7 | C[C@H]1O[C@@H](c2ccncc2NC(=O)c2nc(-c3c(F)cccc3F)c(F)cc2N)C[C@@H](O)[C@]1(C)O [Example 33, 3-amino-6-(2,6-difluorophenyl)-N-(4-((2R,4R,5S,6R)-4,5-dihydroxy-5,6-dimethyltetrahydro-2H-pyran-2-yl)pyridin-3-yl)-5-fluoropicolinamide] | 2 | 4530 | 2 | 276 | 1
8 | C[C@@H]1O[C@H](c2ccncc2NC(=O)c2ccc(F)c(-c3c(F)cccc3F)n2)[C@@H](O)[C@H](O)[C@@]1(C)O (stereo in doubt) [Example 82, 6-(2,6-difluorophenyl)-5-fluoro-N-(4-((2R,3S,4S,5R,6S)-3,4,5-trihydroxy-5,6-dimethyltetrahydro-2H-pyran-2-yl)pyridin-3-yl)picolinamide] | 36 | > 10000 | 7 | 1170 | 2
9 | C=C1[C@@H](O)C[C@@H](c2ccncc2NC(=O)c2nc(-c3c(F)cccc3F)ncc2N)OC12CC2 [Example 6, 5-amino-2-(2,6-difluorophenyl)-N-(4-((5S,7S)-7-hydroxy-8-methylene-4-oxaspiro[2.5]octan-5-yl)pyridin-3-yl)pyrimidine-4-carboxamide] | 280 | > 10000 | 53.6 | 720 | 70
10 | CC[C@]1(O)[C@H](O)C[C@H](c2ccncc2NC(=O)c2ccc(F)c(-c3c(F)cccc3F)n2)O[C@@H]1C (stereo in doubt) [Example 77, 6-(2,6-difluorophenyl)-N-(4-((2R,4R,5S,6R)-5-ethyl-4,5-dihydroxy-6-methyltetrahydro-2H-pyran-2-yl)pyridin-3-yl)-5-fluoropicolinamide] | 756 | 6400 | 236 | 4890 | 50
11 | CC[C@H]1O[C@@H](c2ccncc2NC(=O)c2ccc(F)c(-c3c(F)cccc3F)n2)C[C@@H](O)[C@]1(C)O [Example 164, 6-(2,6-difluorophenyl)-N-(4-((2R,4R,5S,6R)-6-ethyl-4,5-dihydroxy-5-methyltetrahydro-2H-pyran-2-yl)pyridin-3-yl)-5-fluoropicolinamide] | 1.9 | 2760 | 1.6 | 2070 | 0.8
12 | O=C(Nc1cnccc1[C@H]1C[C@@H](O)[C@@]2(O)CCCC[C@H]2O1)c1ccc(F)c(-c2c(F)cccc2F)n1 [Example 174, 6-(2,6-difluorophenyl)-N-(4-((2R,4R,4aS,8aR)-4,4a-dihydroxyoctahydro-2H-chromen-2-yl)pyridin-3-yl)-5-fluoropicolinamide] | 1.3 | 2630 | 1.6 | 19.8 | 0.5
13 | CC[C@H]1O[C@@H](c2ccncc2NC(=O)c2ccc(F)c(-c3c(F)cccc3F)n2)C[C@@H](O)[C@H]1C#N [Example 200, N-(4-((2R,4R,5R,6R)-5-cyano-6-ethyl-4-hydroxytetrahydro-2H-pyran-2-yl)pyridin-3-yl)-6-(2,6-difluorophenyl)-5-fluoropicolinamide] | 46.7 | > 10000 | 33.9 | 1200 | 7.8
